Reference: patent US9879036B2, “Mitochondrial aldehyde dehydrogenase-2 binding compounds and methods of use thereof” (Aviv Therapeutics, Inc., priority 2014, dated 2018)

Biological target: T1, ALDH2 (Homo sapiens, UniProt P05091)
T1 construct: His-tag (N); made in house; host or cells: E. coli BL21
T1 sequence (P05091 18-517): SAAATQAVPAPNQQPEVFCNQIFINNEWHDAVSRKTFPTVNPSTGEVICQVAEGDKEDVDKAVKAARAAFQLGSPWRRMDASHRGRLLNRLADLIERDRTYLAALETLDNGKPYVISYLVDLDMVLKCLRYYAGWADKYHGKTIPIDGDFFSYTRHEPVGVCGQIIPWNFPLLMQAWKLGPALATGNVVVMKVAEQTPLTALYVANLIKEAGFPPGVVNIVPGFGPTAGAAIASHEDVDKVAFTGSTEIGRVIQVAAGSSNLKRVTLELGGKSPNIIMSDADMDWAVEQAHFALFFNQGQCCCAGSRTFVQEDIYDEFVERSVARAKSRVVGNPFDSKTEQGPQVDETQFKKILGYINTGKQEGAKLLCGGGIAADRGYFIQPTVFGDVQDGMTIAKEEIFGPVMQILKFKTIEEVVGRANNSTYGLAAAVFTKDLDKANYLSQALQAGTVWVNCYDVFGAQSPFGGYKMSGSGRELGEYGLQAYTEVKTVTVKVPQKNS
Experiment: ALDH2 activity with 20 μM of the compound (Table 3)
Assay type: biochemical
Details: 20 μM compound
Method: (§1) ALDH2 catalyzes the oxidative reaction of substrate acetaldehyde to acetic acid using NAD^+ as a cofactor. Enzymatic activity, or catalytic rate, of aldehyde dehydrogenase (ALDH2) are measured spectrophotometrically at UV wavelength λ340 nm by the accumulation of reduced product NADH derived from NAD^+. Absorbance at λ340 nm is quantitatively proportional to the amount of NADH being produced over time (6.22 O.D. unit=1 mmol of NADH, measured in a 1-cm width standard cuvette). This method is well-established in the literature [e.g. Rex et al., Alcohol Clin. Exp. Res. 9, 147 (1985)].
as §1, with “can be” for “are”
ALDH2 catalyzes the oxidative reaction of substrate acetaldehyde to acetic acid using NAD^+ as a cofactor. Enzymatic activity, or catalytic rate, of aldehyde dehydrogenase (ALDH2) can be measured spectrophotometrically at UV wavelength λ340 nm by the accumulation of reduced product NADH derived from NAD^+. Because compounds of formula (I) are considered to be agonists or “activators” of ALDH2 the enzymatic activity measured will exceed 100% of the baseline enzymatic activity of the enzyme in its normal activation state. As the concentration of the compounds of formula (I) decreases from 20 micromolar to 0.16 micromolar in the presence of ALDH, a decrease in the activation of enzymatic activity is observed for the wild-type ALDH2*1/*1 and the heterozygous form ALDH2*1/*2.

| SMILES | activity at 20 µM [%] |
| --- | --- |
| COc1ccc(CNC(=O)c2cc(-c3ccccc3C(=O)N(C)C)cnc2OCC2CC2)cc1F [AC79] | 100 to 150 |
| COc1ccc(CNC(=O)c2cc(-c3ccccc3C(=O)O)cnc2OCC2CC2)cc1F [AC75] | 100 to 150 |
| COc1ccc(CNC(=O)c2cc(-c3n[nH]cc3CO)cnc2OCC2CC2)cc1F [AC40] | 100 to 150 |
| COc1ccc(CNC(=O)c2cc(-c3ccccc3OC)cnc2OCC2CC2)cc1F [AC74] | 100 to 150 |
| COc1ccc(CNC(=O)c2cc(-c3ncccc3CO)ccc2OCC2CC2)cc1OC [AC44] | 150 to 250 |
| CC(C)(C)c1ccc(CNC(=O)c2cc(-c3ccccc3CO)cnc2OCC2CC2)cc1 [AC50] | 100 to 150 |
| COc1ccc(CNC(=O)c2cc(-c3ncccc3CO)ccc2NCC2CC2)cc1F [AC42] | 150 to 250 |
| CNCc1ccccc1-c1cnc(OCC2CC2)c(C(=O)NCc2ccc(OC)c(F)c2)c1 [AC70] | 100 to 150 |
| O=C(NCc1ccc(C(F)(F)F)cc1F)c1cc(-c2ccccc2CO)cnc1OCC1CC1 [AC51] | 100 to 150 |
| COc1ccc(CNC(=O)c2cc(-c3ccccc3C(=O)O)ccc2OCC2CC2)cc1F [AC85] | 100 to 150 |
| COc1ccc(CNC(=O)c2cc(-c3ccccc3CN(C)C)cnc2OCC2CC2)cc1F [AC76] | 100 to 150 |
| COc1ccc(CNC(=O)c2cc(-c3cnn(C)c3CO)ccc2OCC2CC2)cc1F [AC33] | > 250 |
| COc1ccc(CNC(=O)c2cc(-c3ccccc3OC)ccc2OCC2CC2)cc1F [AC78] | 100 to 150 |
| COc1ccc(CNC(=O)c2cc(-c3nocc3CO)cnc2OCC2CC2)cc1F [AC41] | 100 to 150 |
| O=C(NCc1cc(Cl)c2c(c1)OCO2)c1cc(-c2ncccc2CO)ccc1OCC1CC1 [AC45] | 100 to 150 |
| COc1ccc(CNC(=O)c2cc(-c3ccccc3O)ccc2OCC2CC2)cc1F [AC82] | 100 to 150 |
| O=C(NCc1ccc(C(F)(F)F)cc1)c1cc(-c2ccccc2CO)cnc1OCC1CC1 [AC49] | 100 to 150 |

| SMILES | activity at 20 µM [%] |
| --- | --- |
| O=C(NCc1ccc(F)cc1)c1cc(-c2ccccc2CO)cnc1OCC1CC1 [AC53] | 100 to 150 |
| COc1ccc(CNC(=O)c2cc(-c3ccccc3CCC(C)=O)cnc2OCC2CC2)cc1F [AC81] | 100 to 150 |
| COc1ccc(CNC(=O)c2cc(-c3c[nH]nc3CO)ccc2OCC2CC2)cc1F [AC30] | > 250 |
| COc1ccc(CNC(=O)c2cc(-c3nc[nH]c3CO)ccc2OCC2CC2)cc1F [AC38] | 150 to 250 |
| O=C(NCc1ccccc1)c1cc(-c2ccccc2CO)cnc1OCC1CC1 [AC55] | 100 to 150 |
| O=C(NCc1cc2c(cc1Cl)OCO2)c1cc(-c2ncccc2CO)ccc1OCC1CC1 [AC46] | 100 to 150 |
| CCNCc1ccccc1-c1ccc(OCC2CC2)c(C(=O)NCc2ccc(OC)c(F)c2)c1 [AC84] | 150 to 250 |
| Cc1ccc(CNC(=O)c2cc(-c3ccccc3CO)cnc2OCC2CC2)cc1 [AC48] | 100 to 150 |
| COc1ccc(CNC(=O)c2cc(-c3ccccc3/C=C/C(C)=O)cnc2OCC2CC2)cc1F [AC77] | 100 to 150 |
| COc1ccc(CNC(=O)c2cc(-c3cn(C)nc3CO)ccc2OCC2CC2)cc1F [AC39] | 150 to 250 |
| CCNC(=O)c1ccccc1-c1cnc(OCC2CC2)c(C(=O)NCc2ccc(OC)c(F)c2)c1 [AC80] | 100 to 150 |
| O=C(NCc1ccc2c(c1)OCO2)c1cc(-c2ncccc2CO)ccc1OCC1CC1 [AC43] | 150 to 250 |
| COc1ccc(CNC(=O)c2cc(-c3ccccc3/C=N/O)cnc2OCC2CC2)cc1F [AC90] | 100 to 150 |
| CNCc1ccccc1-c1ccc(OCC2CC2)c(C(=O)NCc2ccc(OC)c(F)c2)c1 [AC83] | 150 to 250 |
| O=C(NCc1ccc(Cl)c(Cl)c1)c1cc(-c2ccccc2CO)cnc1OCC1CC1 [AC54] | 150 to 250 |
| O=C(NCc1ccc(Cl)cc1)c1cc(-c2ccccc2CO)cnc1OCC1CC1 [AC52] | 100 to 150 |
| COc1ccc(CNC(=O)c2cc(-c3ccccc3C(C)O)cnc2OCC2CC2)cc1F (centres unmarked) [AC89] | 100 to 150 |

Next, values leading:

| activity at 20 µM [%] | SMILES |
| --- | --- |
| > 250 | [2H]C([2H])([2H])Oc1ccc(CNC(=O)c2cc(-c3ncccc3CO)ccc2OCC2CC2)cc1F [AC153] |
| 150 to 250 | COc1ccc(CNC(=O)c2cc(-c3ncccc3CO)ccc2OCC2CC2)c(C)c1F [AC150] |
| 150 to 250 | COc1ccc(CNC(=O)c2cc(-c3ncccc3CO)ccc2OC2CCC2)cc1F [AC106] |
| 100 to 150 | COc1ccc(CNC(=O)c2cc(-c3cnccc3CO)ccc2O)cc1F [AC93] |
| 100 to 150 | COc1ccc(CNC(=O)c2cc(-c3ccccc3C(N)=O)cnc2OCC2CC2)cc1F [AC91] |
| 150 to 250 | CCOc1ccc(-c2cnccc2CO)cc1C(=O)NCc1ccc(OC)c(F)c1 [AC97] |
| > 250 | COc1ccc(CNC(=O)c2cc(-c3ncccc3CO)ccc2OC(C)C)cc1F [AC102] |
| 100 to 150 | COc1ccc(CNC(=O)c2cc(-c3ccccc3CCO)cnc2OCC2CC2)cc1F [AC92] |
| > 250 | COc1ccc(CNC(=O)c2cc(-c3cnccc3CO)ccc2OC(C)C)cc1F [AC101] |
| 150 to 250 | COc1ccc(CNC(=O)c2cc(-c3ncccc3CO)ccc2OCC2CCCCC2)cc1F [AC163] |
| > 250 | [2H]C([2H])([2H])Oc1ccc(CNC(=O)c2cc(-c3ncccc3CO)ccc2OC([2H])([2H])C2CC2)cc1F [AC159] |
| > 250 | [2H]C(O)c1cccnc1-c1ccc(OCC2CC2)c(C(=O)NCc2ccc(OC)c(F)c2)c1 (centres unmarked) [AC152] |
| > 250 | COc1ccc(CNC(=O)c2cc(-c3cnccc3CO)ccc2OC2CCCCC2)cc1F [AC109] |
| > 250 | COc1ccc(CNC(=O)c2cc(-c3ncccc3CO)ccc2OC2CCCC2)cc1F [AC108] |
| > 250 | COc1ccc(CNC(=O)c2cc(-c3ncccc3CO)ccc2OC2CCCCCC2)cc1F [AC164] |
| 100 to 150 | COc1ccc(CNC(=O)c2cc(-c3ncccc3CO)ccc2O)cc1F [AC94] |
| 150 to 250 | COc1ccc(CNC(=O)c2cc(-c3ncccc3CO)ccc2OC2CC2)cc1F [AC104] |

| activity at 20 µM [%] | SMILES |
| --- | --- |
| > 250 | COc1ccc(CNC(=O)c2cc(-c3cnccc3CO)ccc2OCC(C)C)cc1F [AC111] |
| 150 to 250 | COc1c(F)cc(CNC(=O)c2cc(-c3ncccc3CO)ccc2OCC2CC2)cc1Cl [AC147] |
| > 250 | [2H]C(O)c1cccnc1-c1ccc(OCC2CC2)c(C(=O)NCc2ccc(OC([2H])([2H])[2H])c(F)c2)c1 (centres unmarked) [AC157] |
| 150 to 250 | CCOc1ccc(-c2ncccc2CO)cc1C(=O)NCc1ccc(OC)c(F)c1 [AC98] |
| 150 to 250 | COc1ccc(CNC(=O)c2cc(-c3cnccc3CO)ccc2OC2CC2)cc1F [AC103] |
| 150 to 250 | COc1ccc(CNC(=O)c2cc(-c3cnccc3CO)ccc2OC2CCC2)cc1F [AC105] |
| 150 to 250 | COc1ccc(CNC(=O)c2cc(-c3ncccc3CO)ccc2OC2CCCCCCC2)cc1F [AC165] |
| 150 to 250 | COc1ccc(CNC(=O)c2cc(-c3ncccc3CO)ccc2OC)cc1F [AC96] |
| 150 to 250 | COc1ccc(CNC(=O)c2cc(-c3cnccc3CO)ccc2OC)cc1F [AC95] |
| > 250 | COc1ccc(CNC(=O)c2cc(-c3ncccc3CO)ccc2OC2CCCCC2)cc1F [AC110] |
| > 250 | COc1ccc(CNC(=O)c2cc(-c3cnccc3CO)ccc2OC2CCCC2)cc1F [AC107] |
| > 250 | COc1ccc(CNC(=O)c2cc(-c3ncccc3CO)ccc2OCC2CCCC2)cc1F [AC166] |
| 150 to 250 | COc1cc(OC)c(CNC(=O)c2cc(-c3ncccc3CO)ccc2OCC2CC2)cc1F [AC148] |
| 150 to 250 | CCCOc1ccc(-c2ncccc2CO)cc1C(=O)NCc1ccc(OC)c(F)c1 [AC100] |
| 150 to 250 | COc1c(F)cc(CNC(=O)c2cc(-c3ncccc3CO)ccc2OCC2CC2)cc1F [AC145] |
| 150 to 250 | CCCOc1ccc(-c2cnccc2CO)cc1C(=O)NCc1ccc(OC)c(F)c1 [AC99] |
| > 250 | COc1cc(F)c(CNC(=O)c2cc(-c3ncccc3CO)ccc2OCC2CC2)cc1F [AC146] |
